Earlier results in patent US6632929B1, “Avidin derivatives and uses thereof” (Yeda Research and Development Co. LTD, priority 1998, dated 2003).

Key:
avidin [1] = target: T1, avidin (Gallus gallus, UniProt P02701); conditions: non-covalent, same biotin-binding site (Green, 1965); read-out: affinity; cited from earlier work
T1 construct: Egg-white avidin was provided by STC laboratories (Winnipeg, Canada); purchased STC laboratories (Winnipeg, Canada); host or cells: egg white

avidin [2] = target: T1, avidin; conditions: avidin-biotin complex; cited from earlier work
streptavidin = streptavidin (Streptomyces avidinii, UniProt P22629); conditions: streptavidin-biotin complex; cited from earlier work
streptavidin, sequence (P22629 25-183): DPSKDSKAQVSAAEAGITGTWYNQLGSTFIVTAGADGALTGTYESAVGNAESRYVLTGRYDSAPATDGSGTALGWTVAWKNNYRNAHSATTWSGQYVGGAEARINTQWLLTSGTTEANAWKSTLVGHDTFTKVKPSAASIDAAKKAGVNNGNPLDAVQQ

T1 sequence (P02701 25-152): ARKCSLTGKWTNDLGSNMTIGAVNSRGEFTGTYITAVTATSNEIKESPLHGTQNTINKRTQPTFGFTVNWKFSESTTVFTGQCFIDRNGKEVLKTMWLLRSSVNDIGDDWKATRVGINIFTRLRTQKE

Row | SMILES | Kd (avidin [1]) | affinity constant (avidin [2]) | affinity constant (streptavidin)
1 | O=C(O)c1ccccc1N=Nc1ccc(O)cc1 [4′-hydroxyazobenzene-2-carboxylic acid] | 1 to 10 µM |  | 
2 | O=C(O)CCCC[C@@H]1SC[C@@H]2NC(=O)N[C@@H]21 [biotin] |  | 1.6e+15 M⁻¹ | 2.5e+13 M⁻¹
